# Assay results reported in patent US20260250318A1, “COMPOSITIONS AND METHODS FOR CROSSING THE BLOOD BRAIN BARRIER” (VOYAGER THERAPEUTICS, INC., priority 2022, published 2026).
# Test system: brains, heart, liver, muscle, and DRG of the NHPs
# Test: Maturation of TTM-001 and TTM-002 capsids, NGS enrichment in NHP tissues
# Format: in vivo
# Text: This Example describes maturation of the AAV9 capsid variants, TTM-001 (SEQ ID NO: 981 (amino acid) and 983 (DNA), comprising SEQ ID NO: 941 (encoded by SEQ ID NO: 942)) and TTM-002 (SEQ ID NO: 982 (amino acid) and 984 (DNA), comprising SEQ ID NO: […] (encoded by SEQ ID NO: 944)) in NHPs to further enhance their transduction and biodistribution in the central nervous system as well as other tissues, and evolve the AAV capsid variants to provide further cross-species compatibility. Two approaches were used to mature the TTM-001 and TTM-002 capsid sequences in order to randomize and mutate within and around the peptide insert comprised within loop IV of the capsid variant. […] In the first maturation approach, sets of three contiguous amino acids were randomized across the mutagenesis region in the TTM-001 and TTM-002 sequences, which spanned from position 450 to position 466, numbered according to SEQ ID NO: 981 and 982. In the second maturation approach, mutagenic primers were used to introduce point mutations at a low frequency, scattered across the mutagenesis region in the TTM-001 and TTM-002 sequences ranging from position 449 to position 466, numbered according to SEQ ID NO: 981 and 982. AAV capsid variants arising from each maturation approach for TTM-001 and TTM-002 were pooled together, for subsequent testing and characterization in NHPs.
# The library of pooled matured AAV capsid variants generated using the first maturation approach and the second maturation approach for the TTM-001 and TTM-002 AAV capsid variants were injected into two NHPs. […] Following RNA recovery and RT-PCR amplification, a systematic NGS enrichment analysis was performed to calculate the fold enrichment ratio relative to an AAV9 control, and the peptides comprised within the variants were identified.
# Following the RNA recovery and NGS analysis from the second maturation approach, approximately 680,000 capsid variants were identified. The 680,000 matured capsid variants were then filtered based on samples with a raw virus count greater than 10 and a coefficient of variance (CV) of less than 1, which was calculated for each peptide across the brain samples taken from the two NHPs. […] Using this filtering criteria, this led to approximately 64,000 matured capsid variants.
# [1] = NHP DRG, NGS, relative to AAV9 control
# [2] = NHP brain, NGS, relative to AAV9 control
# [3] = NHP heart, NGS, relative to AAV9 control
# [4] = NHP liver DNA, NGS, relative to AAV9 control
# [5] = NHP liver RNA, NGS, TTM-001 and TTM-002 matured AAV capsid variants, relative to AAV9 control
# [6] = NHP muscle, NGS, relative to AAV9 control
# [7] = NGS fold-enrichment, DRG, NHP, relative to AAV9
# [8] = NGS fold-enrichment, brain, NHP, relative to AAV9
# [9] = NGS fold-enrichment, heart, NHP, relative to AAV9
# [10] = NGS fold-enrichment, liver DNA, NHP, relative to AAV9
# [11] = NGS fold-enrichment, liver RNA, NHP, relative to AAV9
# [12] = NGS fold-enrichment, muscle, NHP, relative to AAV9
Sequence,"Fold Enrichment relative to AAV9, DRG (NHP) [1] [fold]","Fold Enrichment relative to AAV9, Brain (NHP) [2] [fold]","Fold Enrichment relative to AAV9, Heart (NHP) [3] [fold]","Fold Enrichment relative to AAV9, Liver DNA (NHP) [4] [fold]","Fold Enrichment relative to AAV9, Liver RNA (NHP) [5] [fold]","Fold Enrichment relative to AAV9, Muscle (NHP) [6] [fold]","Fold Enrichment relative to AAV9, DRG (NHP) [7] [fold]","Fold Enrichment relative to AAV9, Brain (NHP) [8] [fold]","Fold Enrichment relative to AAV9, Heart (NHP) [9] [fold]","Fold Enrichment relative to AAV9, Liver DNA (NHP) [10] [fold]","Fold Enrichment relative to AAV9, Liver RNA (NHP) [11] [fold]","Fold Enrichment relative to AAV9, Muscle (NHP) [12] [fold]"
KTINGSGSPHSRCRNQQT,0.000,0.000,0.000,5.150,64.416,0.000,,,,,,
KTINGSGSPHSKALRWQT,0.000,0.000,0.000,5.252,14.118,0.000,,,,,,
KTINGSGSPHSKGCTQQT,0.000,0.000,0.000,0.529,26.068,0.000,,,,,,
KTINGSGSPHSTTCNQQT,0.000,0.000,0.000,3.315,23.771,0.000,,,,,,
KTINGSGSPHSYMRNQQT,0.000,0.000,0.000,2.293,20.007,0.000,,,,,,
KTINGSGSPHRPWQNQQT,0.000,0.000,0.000,4.936,16.869,0.000,,,,,,
KTINGSGSPHLCVQNQQT,0.000,0.000,0.000,1.428,19.030,0.000,,,,,,
KTINGSGSPHSCQSNQQT,,,,,,,0.000,0.000,0.000,1.468,10.631,0.000
KTINGSGSPHSKFRQQQT,0.000,0.000,0.000,3.260,38.665,0.000,,,,,,
KTINGSGSPHSKAHARQT,0.000,0.000,0.000,1.800,17.075,0.000,,,,,,
KTINGSGSPHMAFQNQQT,0.000,0.000,0.000,0.542,17.644,0.000,,,,,,
KTINGSGSPHLRWQNQQT,0.000,0.000,0.000,9.649,21.014,0.000,,,,,,
KTINGSGSPHSKAQTHRT,0.000,0.000,0.000,2.917,17.290,0.000,,,,,,
KTIKRYGSPHSKAQNQQT,0.000,0.000,0.000,2.022,11.461,0.000,,,,,,
KTINGSGSPHQGCQNQQT,0.000,0.000,0.000,1.037,17.676,0.000,,,,,,
KTINGSGSPHSKCFLQQT,0.000,0.000,0.000,1.434,22.987,0.000,,,,,,
KTINGSGSPHVNCQNQQT,0.000,0.000,0.000,6.122,30.010,0.000,,,,,,
KTINGTRSPHKKAQNQQT,0.225,0.700,0.052,1.152,14.173,4.082,,,,,,
KTINGSGSPHSKAKKVQT,,,,,,,0.000,0.000,0.000,3.974,10.102,0.000
KTINGLVSPHRKAQNQQT,0.000,0.000,0.000,2.739,23.417,0.000,,,,,,
